ChEMBL document CHEMBL2021909, “Isoflavones inhibit the clonogenicity of human colon cancer cells” (2012)

What was measured:
[1] = test system: HCT-116; experiment: Inhibition of human HCT116 clonogenicity after 7 days by crystal violet staining by densitometric analysis; type: functional
[2] = test system: HCT-116; experiment: Cell cycle arrest in human HCT116 cells assessed as accumulation at sub-G1 phase at 20 uM after 48 hrs by flow cytometry (Rvb =7.90 %); type: functional
[3] = test system: HCT-116; experiment: Cell cycle arrest in human HCT116 cells assessed as accumulation at G2/M phase at 20 uM after 48 hrs by flow cytometry (Rvb =23.23 %); type: functional
[4] = test system: HCT-116; experiment: Antiproliferative activity against human HCT116 assessed as growth inhibition after 24 to 48 hrs by WST-8 assay; type: functional, cell-based
[5] = test system: HCT-116; experiment: Cell cycle arrest in human HCT116 cells assessed as accumulation at G1 phase at 20 uM after 48 hrs by flow cytometry (Rvb =45.27 %); type: functional
[6] = test system: HCT-116; experiment: Antiproliferative activity against human HCT116 assessed as growth inhibition at 5 to 40 uM hrs by WST-8 assay; type: functional, cell-based; conditions: TDE = time-dependent effect
[7] = test system: HCT-116; experiment: Cell cycle arrest in human HCT116 cells assessed as accumulation at S phase at 20 uM after 48 hrs by flow cytometry (Rvb =21.16 %); type: functional

SMILES: COc1ccc2c(=O)c(-c3ccccc3)coc2c1C
- inhibition (INH) [1]: 54%

SMILES: COc1cc2c(=O)c(-c3ccccc3)coc2cc1O
- inhibition (INH) [1]: 37.3%

SMILES: COc1cc(OC)c2c(=O)c(-c3cccc(Cl)c3)coc2c1
- inhibition (INH) [1]: 82.7%

SMILES: COc1cc(OC)c2c(=O)c(-c3ccc(Cl)cc3)coc2c1
- inhibition (INH) [1]: 71.3%

SMILES: COc1ccc(-c2coc3c(C)c(OC)ccc3c2=O)cc1
- inhibition (INH) [1]: 52.7%

SMILES: COc1ccc2c(=O)c(-c3ccc(Cl)cc3)coc2c1C
- inhibition (INH) [1]: 58.3%

SMILES: COc1cc(OC)c2c(=O)c(-c3ccccc3Cl)coc2c1
- inhibition (INH) [1]: 63.3%

SMILES: COc1cc(O)c2c(=O)c(-c3ccc(O)cc3)coc2c1 [PRUNETIN]
- inhibition (INH) [1]: 74%

SMILES: Cc1cc2occ(-c3ccc(Cl)cc3Cl)c(=O)c2cc1Cl
- inhibition (INH) [1]: 12.7%

SMILES: COc1cc2occ(-c3ccccc3Cl)c(=O)c2cc1Cl
- inhibition (INH) [1]: 5.3%

SMILES: Cc1c(O)ccc2c(=O)c(-c3ccc(Cl)cc3)coc12
- inhibition (INH) [1]: 46.3%

SMILES: COc1cc2occ(-c3ccccc3)c(=O)c2cc1OC
- Activity [2]: 21.34%
- Activity [3]: 14.34%
- growth inhibition (GI) [4]: Dose-dependent effect
- Activity [5]: 47.46%
- inhibition (INH) [1]: 91.3%
- growth inhibition (GI) [6]: tde
- Activity [7]: 14.97%

SMILES: O=c1c(-c2ccc(O)cc2)coc2c(O)c(O)ccc12
- inhibition (INH) [1]: 64%

SMILES: COc1cc(OC)c2c(=O)c(-c3ccc(OC)c(OC)c3)coc2c1
- inhibition (INH) [1]: 22.3%

SMILES: COc1ccc2c(=O)c(-c3ccccc3)coc2c1
- inhibition (INH) [1]: 42%

SMILES: COc1cc(OC)c2c(=O)c(-c3ccc(Br)cc3)coc2c1
- inhibition (INH) [1]: 13.7%

SMILES: Cc1c(O)ccc2c(=O)c(-c3ccccc3)coc12
- inhibition (INH) [1]: 27.7%

SMILES: COc1ccc(-c2coc3c(OC)c(OC)ccc3c2=O)cc1
- inhibition (INH) [1]: 70%

SMILES: COc1ccc(-c2coc3cc(O)c(OC)cc3c2=O)cc1 [CASTANIN]
- inhibition (INH) [1]: 4.3%

SMILES: COc1cc2c(=O)c(-c3ccc(OC(C)=O)cc3)coc2cc1O
- inhibition (INH) [1]: 26.7%

SMILES: COc1ccc2c(=O)c(-c3ccc(OC)c(OC)c3)coc2c1
- inhibition (INH) [1]: 35.7%

SMILES: COc1cc(C)c2c(=O)c(-c3ccccc3)coc2c1
- inhibition (INH) [1]: 55.3%

SMILES: COc1ccc(-c2coc3cc(OC)c(OC)cc3c2=O)cc1OC
- inhibition (INH) [1]: 85.3%
